Data from patent publication US6169181A, “Compounds useful to treat retroviral infections” (Pharmacia & Upjohn Company, priority 1998, dated 2001).
Where “and” joins values, the source holds several entries; their conditions need not be identical. Equal entries are not always repeated. Where two headings read alike, the source gives them in different places. Values belong to the compound of their own block, whether it stands above or below them.

Legend:
HIV-1 protease [1] = target: T1, HIV-1 protease (Human immunodeficiency virus type 1 group M subtype B, UniProt P04585); assay: biochemical; conditions: Table I; for inhibition at 0.123 µM / inhibition at 0.37 µM / inhibition at 1.1 µM / inhibition at 3.3 µM / inhibition at 10 µM / inhibition at 30 µM: read-out: Protease % Inhib
Experimental: (§1) The HIV protease screening assay is based on fluorescently labeled substrate which can be resolved from nonlabeled cleavage product using special beads coated with streptavidin. The substrate is biotinylated at the amino terminal arginine and fluorescently labeled with fluorescein isothiocynate (FITC) at the carboxyl terminal lysine. This assay has been employed to detect novel, nonpeptidic inhibitors of HIV-1 protease. Substrate (20 μM of 0.2 μM), sample (10 μl of desired concentraion), and enzyme (10 μl of 0.1 μM) are added to a 96 well pandex plate. The assay is run in 0.1 M sodium acetate buffer at pH 5.5 in the presence of 1.0 M sodium chloride and 0.05% NP-40 with incubated in the dark for one hour at room temperature. Strepavidin coated polystyrene beads {40 μl of 0.1% (w/v)} are added and the plate is incubated in the dark for an additional half hour. The labeled cleavage product is separated from the unreacted substrate via filtration and is read on the Idexx screen machine. The data are analyzed by appropriate computer algorithms to ascertain percent inhibition values.

HIV-1 protease [2] = target: T1, HIV-1 protease; assay: biochemical
Experimental: as §1, with “This assay has been employed to detect novel, nonpeptidic inhibitors of HIV-1 protease.” left out
Determination of Ki values utilizes the same materials and equipment employed for percent inhibition studies. Two-fold serial dilutions are made for a given inhibitor from 2, 3 or 4 starting concentrations with a total of 24, 36 or 48 individual inhibitor concentrations. These dilutions are performed utilizing the BioMek robotics system. The assay consists of 10 μL of 40 nM HIV-1 protease, 10 μL of the various inhibitor concentrations, and 20 μL of 200 μM substrate (40 μL total). The reaction is allowed to proceed for 90 min at room temperature, terminated with 40 μL of avidin beads and processed (supra vide). An inhibitor with a known K; is run in parallel to verify the validity of the assay. The data is processed utilizing a computer program employing a nonlinear least square analysis of the data to generate the Ki values.

[3] = Table I, read-out: HIV Protease FITC Assay Ki
[4] = read-out: HIV Protease FITC Assay Ki

Compound: 4-Pyridylsulfonamide, N-[4-[cyclopropyl(5,6,7,8,9,10-hexahydro-4-hydroxy-2-oxo-2H-cycloocta[b]pyran-3-yl)methyl]phenyl]- [Example 240]
PROTEASE % INHIB. (HIV-1 protease [1]; Dose 0.123 μM): 96.32%
PROTEASE % INHIB. (HIV-1 protease [1]; Dose 0.370 μM): 100.98%
PROTEASE % INHIB. (HIV-1 protease [1]; Dose 1.100 μM): 102.71%
PROTEASE % INHIB. (HIV-1 protease [1]; Dose 3.300 μM): 101.88%
PROTEASE % INHIB. (HIV-1 protease [1]; Dose 10.900 μM): 104.28%
PROTEASE % INHIB. (HIV-1 protease [1]; Dose 30.000 μM): 107.17%
Ki (HIV-1 protease [2]; [3]): 1.3 nM

Compound: CC(C)CC(c1cccc(NS(=O)(=O)c2cn(C)cn2)c1)c1c(O)c2c(oc1=O)CCCCCC2 (single isomer, unassigned) [Example 8, (R or S)-N-[3-1-(5,6,7,8,9,10-Hexahydro-4-hydroxy-2-oxo-2H-cycloocta[b]pyran-3-yl)-3-methylbutyl]phenyl]-1-methyl-1H-imidazole-4-sulfonamide]
inhibition at 0.123 µM (HIV-1 protease [1]; Dose 0.123 μM): 99.2%
inhibition at 0.37 µM (HIV-1 protease [1]; Dose 0.370 μM): 110%
inhibition at 1.1 µM (HIV-1 protease [1]; Dose 1.100 μM): 103%
inhibition at 3.3 µM (HIV-1 protease [1]; Dose 3.300 μM): 110%
inhibition at 10 µM (HIV-1 protease [1]): 105%
inhibition at 30 µM (HIV-1 protease [1]; Dose 30.000 μM): 102%
Ki (HIV-1 protease [2]; [3]): 0.35 nM

Compound: CC(C)CC(c1cccc(NS(=O)(=O)c2cn(C)cn2)c1)c1c(O)c2c(oc1=O)CCCCCC2 (single isomer, unassigned) [Example 9, (R or S)-N-[3-1-(5,6,7,8,9,10-Hexahydro-4-hydroxy-2-oxo-2H-cycloocta[b]pyran-3-yl)-3-methylbutyl]phenyl]-1-methyl-1H-imidazole-4-sulfonamide]
inhibition at 0.123 µM (HIV-1 protease [1]; Dose 0.123 μM): 99.1%
inhibition at 0.37 µM (HIV-1 protease [1]; Dose 0.370 μM): 104%
inhibition at 1.1 µM (HIV-1 protease [1]; Dose 1.100 μM): 105%
inhibition at 3.3 µM (HIV-1 protease [1]; Dose 3.300 μM): 105%
inhibition at 10 µM (HIV-1 protease [1]): 107%
inhibition at 30 µM (HIV-1 protease [1]; Dose 30.000 μM): 108%
Ki (HIV-1 protease [2]; [3]): 0.42 nM

Compound: CCCC1(CCC)CC(O)=C(C(CC)c2cccc(NS(=O)(=O)c3cccc4cccnc34)c2)C(=O)O1 (single isomer, unassigned) [Example 52, (R or S)-N-[3-[1-(4-Hydroxy-2-oxo-6,6-dipropyl-5,6-dihydro-2H-pyran-3-yl)-propyl]-phenyl]-8-quinolinesulfonamide]
PROTEASE % INHIB. (HIV-1 protease [1]; Dose 0.123 μM): 85.08%
inhibition at 0.37 µM (HIV-1 protease [1]; Dose 0.370 μM): 87.3%
inhibition at 1.1 µM (HIV-1 protease [1]; Dose 1.100 μM): 92.6%
inhibition at 3.3 µM (HIV-1 protease [1]; Dose 3.300 μM): 97.4%
inhibition at 10 µM (HIV-1 protease [1]): 97.2%
inhibition at 30 µM (HIV-1 protease [1]; Dose 30.000 μM): 88.9%
Ki (HIV-1 protease [2]; [3]): 1.4 nM

Compound: Cn1cnc(S(=O)(=O)Nc2cccc(C(c3c(O)cc(C(CC4CC4)CC4CC4)oc3=O)C3CC3)c2)c1 (stereo not drawn) [98 Second Compound]
Ki (HIV-1 protease [2]; [4]): 0.84 nM and 0.8 nM

Compound: CCC(C1=C(O)CC(CCC2CC2)(CCC2CC2)OC1=O)c1cccc(NS(=O)(=O)c2cn(C)cn2)c1 (stereo not drawn) [Example 246, N-[3-(1-[6,6-Bis-(2-cyclopropyl-ethyl)-5,6-dihydro-4-hydroxy-2-oxo-2H-pyran-3-yl]propyl)phenyl]-1-methyl-1H-imidazole-4-sulfonamide]
Ki (HIV-1 protease [2]; [3]): 1.7 nM

Compound: CCC(C1=C(O)CC(CCC2CC2)(CCC2CC2)OC1=O)c1cccc(NS(=O)(=O)c2ccc(C#N)cn2)c1 (stereo not drawn) [Example 247, N-[3-(1-[6,6-Bis-(2-cyclopropyl-ethyl)-5,6-dihydro-4-hydroxy-2-oxo-2H-pyran-3-yl]propyl)phenyl]-5-cyano-2-pyridinesulfonamide]
Ki (HIV-1 protease [2]; [3]): 1.2 nM

Compound: CCC(C1=C(O)CC(CC)(c2cccc(NS(=O)(=O)c3cn(C)cn3)c2)OC1=O)c1cccc(NS(=O)(=O)c2cn(C)cn2)c1 (stereo not drawn) [Example 248, N-(3-[1-(6-Ethyl-5,6-dihydro-4-hydroxy-6-[3-([(1-methyl-1H-imidazol-4-yl)sulfonyl]amino)phenyl]-2-2H-pyran-3-yl)propyl]phenyl)-1-methyl-1H-imidazole-4-sulfonamide]
Ki (HIV-1 protease [2]; [3]): 4.7 nM

Compound: CCC(C1=C(O)CC(CC)(c2cccc(NS(=O)(=O)c3ccc(C#N)cn3)c2)OC1=O)c1cccc(NS(=O)(=O)c2ccc(C#N)cn2)c1 (stereo not drawn) [Example 249, 5-Cyano-N-(3-[1-(6-[3-([(5-cyano-2-pyridinyl)sulfonyl]amino)phenyl]-6-ethyl-5,6-dihydro-4-hydroxy-2-oxo-2H-pyran-3-yl)propyl]phenyl)-2-pyridinesulfonamide]
Ki (HIV-1 protease [2]; [4]): 0.75 nM

Compound: CCCC1(CCc2ccc(F)cc2)CC(O)=C(C(CC)c2cccc(NS(=O)(=O)c3cn(C)cn3)c2)C(=O)O1 (stereo not drawn) [Example 254, N-[3-{1-(4-Hydroxy-5,6-dihydro-2-oxo-6-(2-(4-fluorophenyl)ethyl)-6-propyl-2H-pyran-3-yl)propyl}phenyl]-1-methyl-1H-imidazole-4-sulfonamide]
Ki (HIV-1 protease [2]; [4]): 3 nM

Compound: CCCC1(CCC)CC(O)=C(C(c2cccc(NS(=O)(=O)c3ccc(C#N)cn3)c2)C(C)(C)C)C(=O)O1 (stereo not drawn) [Example 260, N-[3-{1-(4-Hydroxy-5,6-dihydro-2-oxo-6,6-dipropyl-2H-pyran-3-yl)-2,2-dimethylpropyl}phenyl]-5-cyanopyridine-2-sulfonamide]
Ki (HIV-1 protease [2]; [3]): 2 nM

Compound: CCCC1(CCC)CC(O)=C(C(c2cccc(NS(=O)(=O)c3cn(C)cn3)c2)C(C)(C)C)C(=O)O1 (stereo not drawn) [Example 261, N-[3-{1-(4-Hydroxy-5,6-dihydro-2-oxo-6,6-dipropyl-2H-pyran-3-yl)-2,2-dimethylpropyl}phenyl]-1-methyl-1H-imidazole-4-sulfonamide]
Ki (HIV-1 protease [2]; [3]): 0.87 nM

Second part, the compound after the results:

Ki (HIV-1 protease [2]; [3]): 1.6 nM
Compound: CCCC1(CCc2ccc(F)cc2)CC(O)=C(C(CC)c2cccc(NS(=O)(=O)c3ccc(C#N)cn3)c2)C(=O)O1 (stereo not drawn) [Example 255, N-[3-{1-(4-Hydroxy-5,6-dihydro-2-oxo-6-(2-(4-fluorophenyl)ethyl)-6-propyl-2H-pyran-3-yl)propyl}phenyl]-5-cyanopyridine-2-sulfonamide]

Ki (HIV-1 protease [2]; [3]): 8.3 nM
Compound: Cn1cnc(S(=O)(=O)Nc2cccc(C(C3=C(O)CC(CCc4ccc(F)cc4)(CCc4ccc(F)cc4)OC3=O)C(C)(C)C)c2)c1 (stereo not drawn) [Example 256, N-[3-{1-(4-Hydroxy-5,6-dihydro-2-oxo-6,6-bis(2-(4-fluorophenyl)ethyl)-2H-pyran-3-yl)-2,2-dimethylpropyl}phenyl]-1-methyl-1H-imidazole-4-sulfonamide]

Ki (HIV-1 protease [2]; [3]): 9 nM
Compound: CC(C)(C)C(C1=C(O)CC(CCc2ccc(F)cc2)(CCc2ccc(F)cc2)OC1=O)c1cccc(NS(=O)(=O)c2ccc(C#N)cn2)c1 (stereo not drawn) [Example 257, N-[3-{1-(4-Hydroxy-5,6-dihydro-2-oxo-6,6-bis(2-(4-fluorophenyl)ethyl)-2H-pyran-3-yl)-2,2-dimethylpropyl}phenyl]-5-cyanopyridine-2-sulfonamide]

Ki (HIV-1 protease [2]; [3]): 4.3 nM
Compound: CCC(C1=C(O)CC(CCc2ccc(F)cc2)(CCc2ccc(F)cc2)OC1=O)c1cccc(NS(=O)(=O)c2cn(C)cn2)c1 (stereo not drawn) [Example 258, N-[3-{1-(4-Hydroxy-5,6-dihydro-2-oxo-6,6-bis(2-(4-fluorophenyl)ethyl)-2H-pyran-3-yl)propyl}phenyl]-1-methyl-1H-imidazole-4-sulfonamide]

Ki (HIV-1 protease [2]; [3]): 2.2 nM
Compound: CCC(C1=C(O)CC(CCc2ccc(F)cc2)(CCc2ccc(F)cc2)OC1=O)c1cccc(NS(=O)(=O)c2ccc(C#N)cn2)c1 (stereo not drawn) [Example 259, N-[3-{1-(4-Hydroxy-5,6-dihydro-2-oxo-6,6-bis(2-(4-fluorophenyl)ethyl)-2H-pyran-3-yl)propyl}phenyl]-5-cyanopyridine-2-sulfonamide]

Ki (HIV-1 protease [2]; read-out: FITC KI): 15.4 nM
Compound: CCC(C1=C(O)C2CCCCC2OC1=O)c1cccc(NS(=O)(=O)c2ccc(C#N)cc2)c1 (stereo not drawn) [Example 371]
